Reference: patent US20240130368A1, “HERBICIDAL COMPOSITION” (Nippon Soda Co., Ltd., priority 2021, published 2024)

Tested on: Triticum aestivum
Test: Test Example 5: spraying on the soil surface, herbicidal effect from above ground weight (useful plant)
Format: in vivo
Conditions: Compound (I-3) alone, sprayed on the soil surface, seven weeks after spraying
Description: POA allylphenyl ether (4.1 parts by weight), POE-POP glycol (1 part by weight), POE sorbitan laurate (0.8 parts by weight), glycerin (2.6 parts by weight), dimethylformamide (65.9 parts by weight), N-methylpyrrolidone (5.1 parts by weight), cyclohexanone (15.4 parts by weight), and aromatic hydrocarbons (5.1 parts by weight) were mixed and dissolved to prepare an emulsion. The active ingredient (4 mg) of the composition of the present invention was dissolved in this emulsion (100 μL) to prepare a test emulsion. It should be noted that POA means “polyoxyalkylene”, POE means “polyoxyethylene”, and POP means “polyoxypropylene”.
For the evaluation of the herbicidal effects, the above ground weights of weeds in the untreated and treated areas were measured for each weed 3 weeks after spraying treatment, and the herbicidal effect (%) was calculated by the following calculation formula.
Herbicidal effect (%)=[(above ground weight of weeds in untreated area)−(above ground weight of weeds in treated area)/(above ground weight of weeds in untreated area)]×100
A test emulsion was prepared in the same manner as in Test Example 4.
A 300 cm^2 pot was filled with soil, and seeds of Triticum aestivum, multidrug-resistant Alopecurus myosuroides, Lolium multiflorum and Avena fatua were sown into the surface layer, and covered with soil to a thickness of 0.5 to 1 cm. The above test emulsion was diluted so that the amount of the active ingredient became a predetermined amount, and sprayed on the soil surface at a spray water volume of 250 L per hectare, followed by growth in an outdoor environment.
Seven weeks after spraying, the evaluation was carried out in the same manner as in Test Example 4, except that the above ground weights of weeds in the untreated and treated areas were measured for each weed.
The following plants were used as useful plants [scientific names]. • Wheat [Triticum aestivum]

In the case of COC12OC1(c1ccc(C(F)(F)F)c3c1CCCS3(=O)=O)C=NN(C)C2=O (centres unmarked) [Compound (I-3), 1-methoxy-3-methyl-6-(1,1-dioxido-8-(trifluoromethyl)thiochroman-5-yl)-7-oxa-3,4-diazabicyclo[4.1.0]hept-4-en-2-one], the “Actual measured value of herbicidal effect” value (63 gai/ha) is reported as 0% and the “Actual measured value of herbicidal effect” value (125 gai/ha) is reported as 0%.
